From patent US20150266850A1 (E.I.DU PONT DE NEMOURS AND COMPANY, priority 2012, published 2015)
Marks after values point to notes of the source that are not given here.

What was measured:
Type in all cases: in vivo
Details in all cases: 100 = 100% disease control
Botrytis cinerea = test: Test E: tomato botrytis, preventive spray on tomato seedlings, visual disease rating
Outline: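 Preventive test: seedlings inoculated with Botrytis cinerea spore suspension one day after run-off spraying (200 ppm ≈ 800 g/ha; some 40 or 50 ppm) in acetone/water with 250 ppm surfactant. Incubation 48 h at 20°C saturated humidity, then 3 days at 27°C; disease control rated visually (0–100%) relative to controls.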

[1] = tested on: Puccinia recondita f sp. tritici; test: Test B: wheat leaf rust, preventive spray on wheat seedlings, visual disease rating
Outline: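 Preventive spray to run-off on seedlings, one day before spore inoculation; 24 h in saturated atmosphere at 20° C, then 7 days in a 20° C growth chamber before visual rating (100 = full control, 0 = none, relative to controls). Standard rate 200 ppm, equal to 800 g/ha, some at 40 or 50 ppm; compounds in acetone/water with 250 ppm surfactant.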

Septoria tritici = test: Test C: wheat leaf blotch, preventive spray on wheat seedlings, visual disease rating
Outline: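 Preventive run-off spray on seedlings at 200 ppm (equal to 800 g/ha), some at 40 or 50 ppm, in acetone/water 50/50 plus 250 ppm Trem® 014. Spore inoculation one day later; 24° C. saturated for 48 h, 20° C. chamber 19 days. Disease scored visually as % control relative to controls.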

[2] = tested on: Erysiphe graminis f. sp. tritici; test: Test A: wheat powdery mildew, preventive spray on wheat seedlings, visual disease rating
Outline: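 Preventive test: seedlings inoculated with Erysiphe spores one day after run-off spraying at 200 ppm (or 40/50 ppm) in acetone/water plus surfactant. Kept 8 days at 20° C; visual rating as % disease control versus untreated (100 = full control).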

Septoria nodorum = test: Test D: wheat glume blotch, preventive spray on wheat seedlings, visual disease rating
Outline: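 Disease control (0 = none, 100 = full, relative to controls) was scored visually on wheat seedlings 7 days after a 48 h saturated-humidity incubation at 20° C following Septoria nodorum inoculation. Inoculation came one day after a run-off spray at 200 ppm (some 40 or 50 ppm) in acetone/water plus surfactant.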

Molecule | Test E disease control rating (Botrytis cinerea; 40 ppm (*)) | Test B disease control rating ([1]; 40 ppm (*)) | Test C disease control rating (Septoria tritici; 40 ppm (*)) | Test A disease control rating ([2]; 40 ppm (*)) | Test D disease control rating (Septoria nodorum; 40 ppm (*)) | Test E disease control rating (Botrytis cinerea; 200 ppm) [%] | Test B disease control rating ([1]; 200 ppm) [%] | Test C disease control rating (Septoria tritici; 200 ppm) [%] | Test A disease control rating ([2]; 200 ppm) [%] | Test D disease control rating (Septoria nodorum; 200 ppm) [%] | also measured
COC(=O)NCc1cc(-c2ccn(-c3ccc(Cl)cc3C#N)n2)ccc1C [Cmpd 52] | 0* % | 100* % | 88* % | 97* % | 100* % | – | – | – | – | – | –
COC(=O)NCc1cc(-c2ccn(-c3ccc(OC)cc3OCC#N)n2)ccc1C [Cmpd 32] | – | – | – | – | – | 66 | 100 | 100 | 94 | 100 | –
COC(=O)NCc1cc(-n2ccc(-c3ccc(C)cc3C)n2)ccc1C [Compound 38, methyl N-[[5-[3-(2,4-dimethylphenyl)-1H-pyrazol-1-yl]-2-methylphenyl]-methyl]carbamate] | – | – | – | – | – | – | – | – | – | – | pest or weed control at 40 ppm (Botrytis cinerea; Botrytis cinerea, 120 h, 40 ppm (*)): 98%; pest or weed control at 40 ppm ([1]; 192 h, 40 ppm (*)): 100%; pest or weed control at 40 ppm (Septoria tritici; Zymoseptoria tritici, 504 h, 40 ppm (*)): 100%; pest or weed control at 40 ppm ([2]; Blumeria graminis, 192 h, 40 ppm (*)): 100%; pest or weed control at 40 ppm (Septoria nodorum; Parastagonospora nodorum, 216 h, 40 ppm (*)): 100%
COC(=O)NCc1cc(-c2ccn(-c3ccc(F)cc3OC)n2)ccc1C [Cmpd 27] | – | – | – | – | – | 54 | 100 | 100 | 100 | 100 | –
COC(=O)NCc1cc(-c2ccn(-c3ccc(Br)cc3Br)n2)ccc1C [Cmpd 62] | 100* % | 100* % | 97* % | 100* % | 100* % | – | – | – | – | – | –
COC(=O)NCc1cc(-c2ccn(-c3ccc(C)cc3OC)n2)ccc1C [Cmpd 29] | – | – | – | – | – | 63 | 100 | 100 | 99 | 100 | –
COC(=O)NCc1cc(-n2ccc(-c3ccc(Cl)nc3C)n2)ccc1C [Cmpd 44] | 0* % | 100* % | 92* % | 98* % | 100* % | – | – | – | – | – | –
COC(=O)NCc1cc(-n2ccc(-c3ccc(C)cc3OC)n2)ccc1C [Cmpd 12] | – | – | – | – | – | 95 | 100 | 97 | 100 | 100 | –
COC(=O)NCc1cc(-n2ccc(-c3ccc(OC)cc3Br)n2)ccc1C [Cmpd 59] | 52* % | 100* % | 97* % | 99* % | 100* % | – | – | – | – | – | –
COC(=O)NCc1cc(-n2ccc(-c3ccc(F)cc3C)n2)ccc1C [Cmpd 37] | 77* % | 100* % | 100* % | 95* % | 100* % | – | – | – | – | – | –
COC(=O)NCc1cc(-n2ccc(-c3ccc(Br)cc3F)n2)ccc1C [Cmpd 56] | 56* % | 100* % | 98* % | 100* % | 100* % | – | – | – | – | – | –
CCOc1ccc(-c2ccn(-c3ccc(C)c(CNC(=O)OC)c3)n2)c(Cl)c1 [Cmpd 76] | 0* % | 100* % | 99* % | 100* % | 100* % | – | – | – | – | – | –
COC(=O)NCc1cc(-c2ccn(-c3ccc(Br)cc3[N+](=O)[O-])n2)ccc1C [Cmpd 48] | 37* % | 100* % | 100* % | 0* % | 100* % | – | – | – | – | – | –
COC(=O)NCc1cc(-c2ccn(-c3ccc(F)cc3Cl)n2)ccc1C [Cmpd 60] | 99* % | 100* % | 91* % | 100* % | 100* % | – | – | – | – | – | –
COC(=O)NCc1cc(-n2ccc(-c3ccc(F)cc3OC)n2)ccc1C [Cmpd 14] | – | – | – | – | – | 97 | 100 | 100 | 100 | 100 | –
COC(=O)NCc1cc(-n2ncc(-c3ccc(Cl)cc3F)n2)ccc1C [Cmpd 50] | 77* % | 100* % | 99* % | 100* % | 100* % | – | – | – | – | – | –
COC(=O)NCc1cc(-c2ccn(-c3ccc(SC)cc3OC)n2)ccc1C [Cmpd 15] | – | – | – | – | – | 64 | 100 | 77 | 96 | 100 | –
methyl N-[[5-[3-(2,6-dimethoxy-3-pyridinyl)-1H-pyrazol-1-yl]-2-methylphenyl]-methyl]carbamate [Compound 46] | 92* % | 100* % | 98* % | 98* % | 100* % | – | – | – | – | – | –
COC(=O)NCc1cc(-n2ccc(-c3ccc(C)nc3Cl)n2)ccc1C [Cmpd 43] | 62* % | 100* % | 87* % | 98* % | 100* % | – | – | – | – | – | –
COC(=O)NCc1cc(-n2ncc(-c3ccc(C)cc3OC)n2)ccc1C [Cmpd 7] | – | – | – | – | – | 26 | 100 | 100 | 100 | 100 | –
methyl N-[[5-[1-(2,4-dimethylphenyl)-1H-pyrazol-3-yl]-2-methylphenyl]-methyl]carbamate [Compound 66] | 99* % | 100* % | 96* % | 100* % | 100* % | – | – | – | – | – | –
COC(=O)NCc1cc(-n2ccc(-c3ccc(Cl)cc3F)n2)ccc1C [Cmpd 39] | 53* % | 100* % | 100* % | 99* % | 100* % | – | – | – | – | – | –
COC(=O)NCc1cc(-c2ccn(-c3ccc(Cl)cc3[N+](=O)[O-])n2)ccc1C [Cmpd 49] | 8* % | 100* % | 95* % | 26* % | 100* % | – | – | – | – | – | –
methyl N-[[5-[3-(2,4-dimethoxyphenyl)-1H-pyrazol-1-yl]-2-methylphenyl]methyl]carbamate [Compound 23] | – | – | – | – | – | 56 | 100 | 100 | 99 | 100 | –
